Laboratory results taken from EP0671918B1, “COMPOSITIONS CONTAINING ACYCLOVIR-LIKE COMPOUNDS AND 2'-VINYL SUBSTITUTED NUCLEOSIDE ANALOGS FOR THE TREATMENT OF VIRAL INFECTIONS” (MERRELL PHARMACEUTICALS INC., priority 1992, dated 1994).

Experiments:
[1] = tested on: herpes simplex virus type I; experiment: Anti-herpes viral yield reduction in vero cells, plaque method; assay type: cell-based, herpes simplex virus KOS (type 1); settings: 24 hours post infection
Procedure: (§1) Two strains of herpes simplex virus are used: KOS (type 1) and EKC (type 2). Prepare all of the virus stocks by infecting vero cells at an input multiplicity of 0.1 PFU/cell. Sonically disrupt the cultures at 20-24 hours post infection and store them at -70°C after inclusion of DMSO to 5% (v/v) to prevent freeze damage.
(§2) Determine the anti-herpes viral activity of the compounds by a known method (Ash and Diekema, Antiviral Research, 8: 71-83 (1987)). For example, infect vero cells with each strain of HSV at 1 PFU/Cell. At the end of the absorption period (60 min., 36°C), remove the unattached virus. Wash cell sheets twice with Eagles basal medium (EBM) and 2% fetal calf serum (FCS). Add fresh medium containing the test compounds. Finally, determine viral yields at 24 hours post infection by plaque method on vero cells with methyl cellulose overlay (0.5% in EBM + 1% FCS).

[2] = tested on: herpes simplex virus type II; experiment: as above; assay type: cell-based, herpes simplex virus EKC (type 2); settings: 24 hours post infection; for Virus Titer: Viral Control 1.24x10^5
Procedure: as §1, §2

[3] = Single agent, Conc. 5.0 ng/ml, Viral Control 2.6x10^5

| SMILES | inhibition at 0.0125 µg/mL ([1]; Conc. 0.0125 ug/ml) | Virus Titer ([1]; Conc. 0.0125 ug/ml, Viral Control 3.7x10^8) | inhibition at 0.025 µg/mL ([1]; Conc. 0.025 ug/ml) | Virus Titer ([1]; Conc. 0.025 ug/ml, Viral Control 3.7x10^8) | inhibition at 0.05 µg/mL ([1]; Conc. 0.050 ug/ml) | Virus Titer ([1]; Conc. 0.050 ug/ml, Viral Control 3.7x10^8) | inhibition at 0.1 µg/mL ([1]; Conc. 0.10 ug/ml) | Virus Titer ([1]; Conc. 0.10 ug/ml, Viral Control 3.7x10^8) | inhibition at 0.005 µg/mL ([1]; Single agent, Conc. 5.0 ng/ml) | Virus Titer [1, 3] | inhibition at 0.0125 µg/mL ([2]; Conc. 0.0125 ug/ml) | Virus Titer ([2]; Conc. 0.0125 ug/ml) | inhibition at 0.025 µg/mL ([2]; Conc. 0.025 ug/ml) | Virus Titer ([2]; Conc. 0.025 ug/ml) | inhibition at 0.05 µg/mL ([2]; Conc. 0.050 ug/ml) | Virus Titer ([2]; Conc. 0.050 ug/ml) | inhibition at 0.1 µg/mL ([2]; Conc. 0.10 ug/ml) | Virus Titer ([2]; Conc. 0.10 ug/ml) | inhibition at 0.0025 µg/mL ([1]; Single agent, Conc. 2.5 ng/ml) | Virus Titer ([1]; Single agent, Conc. 2.5 ng/ml, Viral Control 2.6x10^5) |
| --- | --- | --- | --- | --- | --- | --- | --- | --- | --- | --- | --- | --- | --- | --- | --- | --- | --- | --- | --- | --- |
| Nc1ccn([C@@H]2O[C@H](CO)[C@@H](O)/C2=C\F)c(=O)n1 [Compound A, (E)-2'-deoxy-2'-fluoromethylidenecytidine] | 0% | 5.5x10^8 P.F.U./ml | 88% | 4.5x10^7 P.F.U./ml | 100% | 0 P.F.U./ml | 100% | 0 P.F.U./ml | 42% | 1.6x10^5 P.F.U./ml | 32% | 8.5x10^4 P.F.U./ml | 96% | 5.5x10^3 P.F.U./ml | 100% | 0 P.F.U./ml | 100% | 0 P.F.U./ml | – | – |
| Nc1nc2c(ncn2COCCO)c(=O)[nH]1 [ACV, 9-[(2-hydroxyethoxy)methyl]guanine, reference compound] | – | – | – | – | – | – | – | – | 30% | 1.85x10^5 P.F.U./ml | – | – | – | – | – | – | – | – | 0% | 3x10^5 P.F.U./ml |
